Values joined by “and” are separate entries in the source; they are usually repeats but may differ in a detail not shown here. Identical values can stand only once. Like-named read-outs stand apart in the source and are kept apart here. Ends that are not written are not given here. * marks the point of attachment. Biotin = O=C1N[C@H]2[C@H](CS[C@H]2CCCCC(=O)*)N1

From patent US20090317419A1, “Tetramers” (Duke University, priority 2008, published 2009) come the findings set out here.

The target of one experiment is gp41 MPER tetramer. Nature of the experiment: SPR, captured mAb, tetramer injected.
For a further experiment, the target named is gp41 ID tetramer. Nature of the experiment: SPR, captured mAb, tetramer injected.
Experiment [1] relates to mAb 7B2 (anti-gp41 immunodominant region). The following applies: SPR, mAb 7B2 captured. Here is the method:
(§1) Surface Plasmon Resonance (SPR) measurements of tetramer binding to peptide epitopes. Tetramer binding assays were carried out on a BIAcore 3000 (BIAcore/GE Healthcare, Piscataway, N.J.) instrument using mAbs against each specific B cell epitope.
(§2) Each mAb (about 1000 RU) was first captured on anti-human Fc mAb (Pierce, Rockford, Ill.) immobilized on a CM5 sensor chip. Approximately 3000 RU of anti-human Fc mAb was covalently coupled to each flow cell of the sensor chip as described before (Alam et al, Journal of Immunology 178:4424-4435 (2007)). Each B cell tetramer was injected over its epitope specific mAb or a control surface immobilized with irrelevant mAb. For each tetramer binding curve, non-specific binding signals obtained from the control surface were subtracted. The binding assay was monitored at 25° C. and using PBS, pH 7.4, as the running buffer. The BIAevaluation 3.0 software (BIAcore/GE Healthcare, Piscataway, N.J.) was used for SPR binding data analyses.

The next experiment deals with mAb 7B2 on beads. To be noted: flow cytometry. The protocol:
(§3) Antibody-coated beads. Carboxyl-polystyrene beads (3.0-3.4 μm) (Spherotech, Inc., Lake Forest, Ill.) were resuspended in 0.01 M sodium acetate buffer (pH 5.0) and reacted (20° C.×1 hr) with 1-ethyl-3-(3-dimethylaminopropyl) carbodiimide hydrochloride (EDC) (Sigma-Aldrich, Co., St. Louis, Mo.) at a ratio of 3.1 mg beads to 1 mg EDC. Beads were washed with sodium acetate buffer, resuspended in a minimal volume before adding purified mAb in the same buffer (ratio of 16 mg beads to 1 mg mAb), incubated (20° C.×2 hrs), then washed with sodium acetate buffer. Beads were resuspended at 5% in PBS containing 1% bovine serum albumin and 0.02% sodium azide.
(§4) Use of antibody-coated beads and cell lines for tetramer quality control. Tetramer stocks were diluted to twice the desired final concentration in PBS containing 1% BSA. An equal volume of beads or cells at 5×10^5 up to 2×10^6 per sample were mixed with tetramer and incubated (4° C.×30 min). Beads or cells were washed with PBS+1% BSA before being fixed in 2% methanol-free formaldehyde (Polysciences, Inc, Warrington, Pa.) in PBS. Samples were stored at 4° C. prior to being analyzed by flow cytometry (BD LSR II, Becton Dickinson, Mountain View, Calif.). Data were analyzed using FlowJo (Tree Star, Ashland, Oreg.). For tetramer titration 40-80 ng tetramer per 10^6 cells/beads was serially diluted over 8-12 points. Optimal concentrations determined by this method were used for subsequent experiments. For cold competition experiments the incubation step was performed by staining with 10-fold excess unlabeled tetramer (4° C.×30 min) prior to the addition of APC-labeled tetramer. For cell dilution experiments, a mixture of mAb cell lines was made and then 1:10 serial dilutions of cells prepared. For cross competition experiments, mixtures of cells were prepared and then stained singly with anti-IgG reagents or tetramer, or the cells were doubly stained with both reagents either sequentially or concurrently.

The test system of a further experiment is 7B2 cells. The following applies: flow cytometry. The protocol:
as §4

For experiment [2], the system named is B cell subsets from naive C57BL/6 mice. Here is the method: (§5) Cell isolation, serum collection, and PBMC isolations. Heparinized or non-heparanized blood was collected sub-mandibularly 10 days after immunizations. For preparation of peripheral blood lymphocytes for B cell tetramer analysis, PBMC were isolated from blood collected in heparinized tubes (0.2 ml) using Lympholyte M (Cederlane). For Luminex and ELISA assays, sera was isolated from non-heparanized blood and stored at −20° C. until use. Spleen, bone marrow (BM), and peritoneal cavity (PerC) cells were also collected. For most immunizations, tissues were harvested after the 4th boost, except for kinetic studies, in which tissues from mice were harvested after 1, 3 or 7 days after a single immunization. For BM preparations, femora and tibiae were removed, aspirated with tissue medium using 23 gauge needles, filtered with 70 μm cell strainers (BD labware), and RBC-depleted using Tris-buffered ammonium chloride lysis. For splenocyte preparation, spleens were harvested and dissociated into single-cell suspensions either by passage through 70 μm cell strainers in tissue medium or by using frosted glass slides, and blood erythrocytes were depleted with ammonium chloride lysis. For isolation of peritoneal cells, peritoneal cavities of sacrificed mice were lavaged by injection with 10 ml of PBS, followed by gentle massage of the abdomen, and withdrawal of the peritoneal exudates. BM, splenic, and peritoneal single cell suspensions were centrifuged at 1500 rpm for 5 min and resuspended in 5, 10, and 1 ml of tissue media, respectively, for cell counts and immunofluorescence staining. Cell counts were performed in duplicate on a Coulter ZI Dual Threshold Cell Counter (Coulter).
(§6) Antibodies and flow cytometry. Immunofluorescent staining of single cell suspensions (≧2×10^6) was conducted using pre-mixed combinations of fluorochrome-labeled antibodies and APC-conjugated B cell tetramers at empirically-determined optimal concentrations. All antibodies were from BD unless otherwise stated. […] Other reagents included biotinylated antibodies against dump channel markers: Thy1 (Ox7; Abcam), F4/80 (BM8; Abcam), CD11c (clone HL3), Gr-1 (clone RB6-8C5), TER-119, and NK-1.1 (clone PK136), secondary staining SA-Texas Red conjugate; v-amine live/dead violet dye (Molecular Probes), and Fc block (anti-CD16/32; clone 2.4G2).
(§7) Staining was conducted at 4° C. in several sequential steps in FACS staining buffer (1×PBS with 2% FCS, 0.1% NaN3), washing twice between steps. First, cells were incubated with v-amine live/dead dye for 15 min. Next, cells were stained with APC-labeled tetramers for 30 min. Where applicable, this was preceded by addition of cold tetramer at 10 fold molar excess for 1 h. Finally, cells were stained with Fc block for 30 min, followed by incubation with combinations of primary antibody cocktails for 30 min, and secondary staining with SA-Texas Red for 30 min.
(§8) Data were acquired using an LSRII flow cytometer and Cell Quest software (BD Immunocytometry systems). A minimum of 250000 events were acquired per sample. FACS Analysis was performed using FlowJo software (Tree Star). For analysis, single cells were positively gated based on their forward scatter height vs. forward scatter area and side scatter height vs. side scatter area profiles, lymphocytes were then positively gated based on their forward and side scatter profile (live lymphocyte gate), residual dead cells were excluded with negative gating on v-amine live/dead dye, and all irrelevant non-B cells were excluded with negative gating on dump markers Thy1, F4/80, CD11c, Gr-1, TER-119, and NK-1.1.
To examine if gp41 2F5 MPER epitope reactivity across B cell subsets mapped similarly on the IgH^b allotype, reactivity to gp41 2F5 MPER tetramers was measured by measuring the percentage of APC-labeled gp41 2F5 MPER tetramer-reactive cells in C57BL/6 bone marrow, splenic, and peritoneal B cell subsets (Table 10).

For experiment [3], the system named is total naïve splenic BALB/c B cells. The following applies: APC-labeled tetramer. Here is the method:
as §5, §6, §7, §8

The subject of the next experiment is mAb F39F (anti-gp120 V3). To be noted: SPR, mAb F39F captured, 25° C., PBS pH 7.4. The protocol:
as §1, §2

Experiment [4] has as its system V3 loop mAbs 7B9 and F39F on beads. The following applies: flow cytometry. The protocol: as §3, §4
The next experiment relates to F39F cells. To be noted: flow cytometry. Here is the method:
as §4

Experiment [5] has as its target 62.19 V3 tetramer.
The target in the next experiment is B.con03 V3 tetramer. Nature of the experiment: SPR, captured mAb, tetramer injected.
For experiment [6], the target named is 62.19 V3 tetramer. The experiment can be described thus: SPR, captured mAb, tetramer injected.
The test system of the next experiment is 2F5 mAb. The experiment can be described thus: Binding of alanine substituted gp41 MPER tetramers to 2F5 (antibody-coated beads and SPR). More on the design: species or system human. To be noted: flow cytometry on antibody-coated beads and SPR. Here is the method: (§9) Data were analyzed using FlowJo (Tree Star, Ashland, Oreg.).
(§10) Development of gp41 MPER tetramers specific for neutralizing vs. non-neutralizing antibodies. […] Therefore, the next question asked was whether gp41 MPER tetramers could be made that preferentially react with either of these two prototype antibodies that would make it possible to discriminate between neutralizing 2F5-like gp41 MPER antibodies and non-neutralizing 13H11-like MPER antibodies. To address this issue, a series of gp41 MPER tetramers were made with alanine substitutions along the primary sequence (see Table 8) and assayed for the binding of 13H11 or 2F5 by flow cytometry on antibody-coated beads and by SPR (FIGS. 6C and 6D). […] Thus, tetramers made with the A13 or A15 mutant will bind B cells only with surface Ig similar to the non-neutralizing 13H11 antibody while tetramers made with the A14, A18, or A20 mutants will bind B cells only with surface Ig with specificities similar to the neutralizing 2F5 antibody.

Another experiment has as its system 13H11 mAb. The experiment can be described thus: Binding of alanine substituted gp41 MPER tetramers to 13H11 (antibody-coated beads and SPR). More on the design: species or system mouse. To be noted: flow cytometry on antibody-coated beads and SPR. The protocol:
as §9, §10

Chain of 62.19 V3 tetramer (P22629 37-163 limits assumed): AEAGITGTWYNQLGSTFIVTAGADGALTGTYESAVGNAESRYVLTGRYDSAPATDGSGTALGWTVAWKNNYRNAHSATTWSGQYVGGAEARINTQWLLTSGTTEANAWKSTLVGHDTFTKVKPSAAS
Chain of B.con03 V3 tetramer (P22629 37-163 limits assumed): as above
Chain of gp41 MPER tetramer (P22629 37-163 limits assumed): as above
Chain of gp41 ID tetramer (P22629 37-163 limits assumed): as above

In the experiment with gp41 MPER tetramer, 2F5 (antibody) yielded a koff of 0.00037 s⁻¹ and a kon of 174000 M⁻¹ s⁻¹.

In the experiment with gp41 ID tetramer, 7B2 (antibody) registered a koff of 0.0011 s⁻¹ and a kon of 1200 M⁻¹ s⁻¹.

As for “Biotin-GGGKQLQARVLAVERYLKDQQLLGIWGCSGKLICTTAV (cysteine pairing not given here) [gp41 ID tetramer]”, in experiment [1], the koff was 1.1 s^−1 × 10^−3 and the kon was 1.2 M^−1s^−1 × 10^3. The “binding to antibody-coated beads” value in the experiment on mAb 7B2 on beads was “bound only to mAb 7B2”. The “binding to mAb cell line” value in the experiment with 7B2 cells is listed as “bound”.

In the case of “Biotin-GGGNKEQDQAEESLQLWEKLNWL [gp41 MPER scrambled tetramer]”, the “% of subset binding tetramer ± SEM” value is on record as 0.10 ± 0.02% in [2] (C57BL/6, Bone marrow, Immature); 0.09 ± 0.02% in experiment [2] (C57BL/6, Bone marrow, MF); 0.06 ± 0.01% in experiment [2] (C57BL/6, Bone marrow, Pro/pre); 0.12 ± 0.02% in [2] (C57BL/6, Bone marrow, T1); 0.11 ± 0.01% in experiment [2] (C57BL/6, Bone marrow, T2); 0.14 ± 0.03% in experiment [2] (C57BL/6, Peritoneum, B1a). Further, the “% of subset binding tetramer ± SEM” value in [2] (C57BL/6, Peritoneum, B1b) is recorded as 0.13 ± 0.02%; in [2] (C57BL/6, Peritoneum, B2), 0.15 ± 0.03%; in [2] (C57BL/6, Spleen, MF) it was 0.11 ± 0.02%; in experiment [2] (C57BL/6, Spleen, MZ), 0.09 ± 0.01%; in experiment [2] (C57BL/6, Spleen, T1), 0.08 ± 0.01%; in [2] (C57BL/6, Spleen, T2) it was 0.10 ± 0.02%. The “binding to total naïve splenic B cells” value in experiment [3] was “Negligible binding”.

As to “Biotin-GGGQLDSIQKEVYQLGRQLVWCTARLATKLVGKACGIL (cysteine pairing not given here) [gp41 ID scrambled tetramer]”, the “binding to antibody-coated beads” value in the experiment with mAb 7B2 on beads was “higher background”. Further, the “binding to mAb cell line” value in the experiment on 7B2 cells is listed as “higher background”.

In the case of “Biotin-GGGTRPNNNTRKSIHIGPGRAFYTTGEIIGDIRQAH [B.con03 V3 tetramer]”, in the experiment on mAb F39F (anti-gp120 V3), the koff was 0.65 s^−1 × 10^−3 and the kon was 83.4 M^−1s^−1 × 10^3. Besides, the “binding to antibody-coated beads” value in [4] is “bound to both V3 loop mAbs 7B9 and F39F”. Also, the “binding to mAb cell line” value in the experiment with F39F cells was “bound”.

As for F39F (antibody), in the experiment with 62.19 V3 tetramer [5], the % of cells in the tetramer-positive quadrant was 6%; the % of cells positive for both tetramer and anti-IgG was 6.34% and 6.22% and 6.05%. Also, in the experiment with B.con03 V3 tetramer, the koff stood at 0.00065 s⁻¹ and the kon was found to be 83400 M⁻¹ s⁻¹. In the experiment with 62.19 V3 tetramer [6], this substance yielded a koff of 0.0006 s⁻¹ and a kon of 60500 M⁻¹ s⁻¹.

For the substance “QQEKNEQELLELAKWASLWN (QQEKNEQELLELAKWASLWN; also: tetramer with streptavidin) [A13, alanine substituted gp41 MPER tetramer]”, in the experiment with 2F5 mAb, the “binding to 2F5 mAb” value is reported as “eliminated binding”.

Regarding “QQEKNEQELLELDAWASLWN (QQEKNEQELLELDAWASLWN; also: tetramer with streptavidin) [A14, alanine substituted gp41 MPER tetramer]”, in the experiment with 13H11 mAb, the “binding to non-neutralizing mAb 13H11” value is recorded as “significantly reduced or eliminated binding”.

As to “QQEKNEQELLELDKAASLWN (QQEKNEQELLELDKAASLWN; also: tetramer with streptavidin) [A15, alanine substituted gp41 MPER tetramer]”, in the experiment on 2F5 mAb, the “binding to 2F5 mAb” value is on record as “eliminated binding”.

Turning to “QQEKNEQELLELDKWASAWN (Biotin-GGGQQEKNEQELLELDKWASAWN; also: tetramer with streptavidin) [A18, alanine substituted gp41 MPER tetramer]”, the “binding to non-neutralizing mAb 13H11” value in the experiment on 13H11 mAb is on record as “significantly reduced or eliminated binding”.

For the substance “QQEKNEQELLELDKWASLWA (QQEKNEQELLELDKWASLWA; also: tetramer with streptavidin) [A20, alanine substituted gp41 MPER tetramer]”, in the experiment with 13H11 mAb, the “binding to non-neutralizing mAb 13H11” value is “significantly reduced or eliminated binding”.
